Data on one substance can be found in patent publication US20130189255A1, “FUSIONS AND CONJUGATES OF INSULINOTROPIC AGENTS” (GLAXO GROUP LIMITED, priority 2008, published 2013).

One data set addresses RSA (Rattus norvegicus, UniProt P02770). Kind of data set: Surface plasmon resonance (Biacore, streptavidin chip with biotinylated serum albumin), RSA. The conditions noted are these: Biacore SA chip, HBS-EP buffer; read-out: Affinity (KD) to RSA. The class given is binding. The procedure: The analysis was performed using a streptavidin chip (SA) coated with biotinylated serum albumin. 200-1000 resonance units (RUs) of each serum albumin was immobilised on the chip. Flow cell 1 was uncoated, flow cell 2 was coated with HSA, flow cell 3 was coated with RSA and flow cell 4 was coated with CSA. A range of concentrations of fusion was prepared (in the range 15.6 nM to 2 μM by dilution into BIACORE HBS-EP buffer (0.01M HEPES, pH7.4, 0.15M NaCl, 3 mM EDTA, 0.005% surfactant P20) and flowed across the BIACORE chip.
Affinity (KD) was calculated from the BIACORE traces by fitting on-rate and off-rate curves to traces generated by concentrations of dAb in the region of the KD.
(Surface plasmon resonance follows binding to a sensor surface in real time, without labels.)

For data set [1] the following is noted: rat, in vivo. The procedure:
This was followed by ion exchange chromotography on a Resource S column using a 0-1M salt gradient in 20 mM acetate pH5.0. Fractions containing the desired protein were then combined and buffer exchanged into 100 mM NaCl, 20 mM citrate pH6.2. Protein was filter sterilised, buffer exchanged and Qced prior to use in vivo.
Calculated plasma levels were then used to fit pharmacokinetic parameters using WinNonLin software. Half life after subcutaneous and intravenous administration and bioavailability is outlined in the table 8 below. It was concluded from the results that all three compounds show desirable pharmacokinetic parameters in rat.

The subject of another data set is cynomolgus monkey. Put plainly: PD in cynomolgus monkey: biscuit consumption. The class given is in vivo, cynomolgus monkey (Macaca fascicularis). From the text: Protein was extensively QCed (including SDS-PAGE, mass spec, activity assay:GLP-1R-BA, pH check, osmolarity check), filter sterilised and endotoxin removed. Protein with confimed low endotoxin (<0.05 EU/mg protein) was then used for the in vivo study. Six female cynomolgus monkeys (Macaca fascicularis; Charles River Laboratories BRF, Houston, Tex., Primate Products, Miami, Fla. and/or Covance Research Products, Inc., Alice, Tex.) were used in this study. The monkeys were approximately 2 to 9 years old (with a body weight range of approximately 2 to 5 kilograms) at initiation of dosing. The monkeys were housed individually in stainless-steel cages in an environmentally controlled room(s) (64 F to 84 F; 30 to 70% relative humidity) with a 12-hour light/dark cycle. The female monkeys were offered approximately 6 biscuits twice daily of Monkey Diet #5038 (PMI Nutrition International, Richmond, Ind.) and a daily allotment of fresh fruit. […] Dose was at 0.1 mg/Kg. On the days of dosing, the first feeding occurred within approximately 1 hour post dose for each monkey (extended up to 2.5 hours post dose if study-related procedures required animals to be out of their local housing for an extended period of time). The second feeding was no sooner then two hours following the first feeding. For the purpose of environmental enrichment, additional fruit, legume and/or vegetable (e.g., grapes, baby carrots, peanuts) was provided to each monkey at or around the time of viability check or as a method of reward after acclimation or study-related procedures. Filtered tap water (supplied by Aqua Pennsylvania, Inc. and periodically analyzed) was available ad libitum. Plasma samples (approx 2 ml) were collected from the femoral vessel at predose (0 hour) and nominally at 5 minutes (iv group only), 0.5, 4, 8, 24, 48, 96, 144, 192, 288, 336, 504 and 672 hours after dosing. (PK samples from one of the animals in the iv dose group were only collected to 24 h so this animal has been excluded from the PK fitting). Analysis of samples was by mass spectrometry, and fitting of the data was using WinNonLin fitting software. PK parameters were as follows for iv administration (n=2): T1/2 67 h, MRT 46 h, Vz 327 ml/Kg and Cl 3.3 ml/hr/Kg; and for sc administration (n=3): T1/2 68 h, MRT 98 h, Vz 306 ml/Kg and Cl 3.1 ml/hr/Kg. Bioavailability was calculated as 99%. A PK study was conducted in cynomolgus monkey as described above. The principal aim of this study was to determine the pharmacokinetic parameters for DAT0115 in cynomolgus monkey (as described in the previous example), but a secondary aim was to obtain an indication of the efficacy of the DAT0115 compound in the monkeys (without sufficient power in the study for statistical significance). To achieve this secondary aim, biscuit consumption by the monkeys was monitored during the course of the study.

pKd: −log10 of the molar value. Where “and” joins values, the source holds several entries; their conditions need not be identical. Equal entries are not always repeated.

A word on the pKd: it is the negative decadic logarithm of the Kd, by convention in mol/L.

RSA, sequence (P02770 25-608): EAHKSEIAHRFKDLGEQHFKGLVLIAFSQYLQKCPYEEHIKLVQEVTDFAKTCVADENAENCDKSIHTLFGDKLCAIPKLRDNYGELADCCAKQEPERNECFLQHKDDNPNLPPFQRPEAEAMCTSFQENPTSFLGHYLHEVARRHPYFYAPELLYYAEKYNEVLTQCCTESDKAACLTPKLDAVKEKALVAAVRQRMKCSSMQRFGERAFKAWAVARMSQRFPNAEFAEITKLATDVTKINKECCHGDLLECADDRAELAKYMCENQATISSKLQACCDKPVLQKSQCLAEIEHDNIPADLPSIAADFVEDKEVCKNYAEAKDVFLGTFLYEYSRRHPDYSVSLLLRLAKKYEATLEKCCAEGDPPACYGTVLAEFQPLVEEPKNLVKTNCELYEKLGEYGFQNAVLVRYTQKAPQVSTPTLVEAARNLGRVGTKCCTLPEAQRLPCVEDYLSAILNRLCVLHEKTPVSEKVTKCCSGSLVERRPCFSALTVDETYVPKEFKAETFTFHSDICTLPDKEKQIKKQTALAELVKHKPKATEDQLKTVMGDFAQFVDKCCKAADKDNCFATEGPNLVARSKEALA

Regarding “Exendin 4 (G4S linker)3 DOM7h-14 dAb fusion [DAT0115]”, the pKd in the data set with RSA is 5.70. Besides, the Bioavailability in data set [1] is given as 81%. Besides, the “Half-life after intravenous administration” value in data set [1] (iv, 0.3 mg/kg) stood at 4.9 h. In addition, the Biscuits consumed daily in the data set on cynomolgus monkey (0.1 mg/Kg (iv), Day 1 (dosing day), individual monkey) is 0 (2×) and 6; in the data set with cynomolgus monkey (0.1 mg/Kg (iv), Day 2, individual monkey), 0 and 3 and 1; in the data set on cynomolgus monkey (0.1 mg/Kg (iv), Day 3, individual monkey) it was 0 (2×) and 9; in the data set on cynomolgus monkey (0.1 mg/Kg (iv), Day 4, individual monkey) it was 0 and 12 and 4; in the data set with cynomolgus monkey (0.1 mg/Kg (iv), Day 5, individual monkey), 1 and 12 and 6; in the data set with cynomolgus monkey (0.1 mg/Kg (iv), Day 6, individual monkey), 6 and 12 and 10. For the same substance, the Biscuits consumed daily in the data set with cynomolgus monkey (0.1 mg/Kg (iv), Day 7, individual monkey) is 6 and 12 and 11; in the data set on cynomolgus monkey (0.1 mg/Kg (iv), Day −1 (pre-dose), individual monkey), 12; with cynomolgus monkey (0.1 mg/Kg (iv), Day −2 (pre-dose), individual monkey), 12; with cynomolgus monkey (0.1 mg/Kg (sc), Day 1 (dosing day), individual monkey), 5 and 12 and 11; in the data set on cynomolgus monkey (0.1 mg/Kg (sc), Day 2, individual monkey) it was 0 (2×) and 12; with cynomolgus monkey (0.1 mg/Kg (sc), Day 3, individual monkey), 4 and 2 and 11. The Biscuits consumed daily with cynomolgus monkey (0.1 mg/Kg (sc), Day 4, individual monkey) is 11 and 12 (2×); in the data set with cynomolgus monkey (0.1 mg/Kg (sc), Day 5, individual monkey), 7 and 12 and 8; in the data set with cynomolgus monkey (0.1 mg/Kg (sc), Day 6, individual monkey), 11 and 12 (2×); in the data set on cynomolgus monkey (0.1 mg/Kg (sc), Day 7, individual monkey), 12; in the data set on cynomolgus monkey (0.1 mg/Kg (sc), Day −1 (pre-dose), individual monkey) it was 12; with cynomolgus monkey (0.1 mg/Kg (sc), Day −2 (pre-dose), individual monkey), 12. Also, in the data set with cynomolgus monkey (0.1 mg/Kg iv or sc, all monkeys, not powered for significance), the “food consumption in the days following dosing” value is listed as “trend towards reduction in food consumption”.
